This passage reports IC50 results from patent publication US12692261B2, “Substituted heterocyclic compounds and therapeutic uses thereof” (Bayer Aktiengesellschaft, priority 2020, dated 2026).

Experiment [1] deals with T1, wild-type Epidermal Growth Factor Receptor (EGFR) (Homo sapiens, UniProt P00533).
T1 construct: a fragment of human EGFR (amino acids R669 to A1210); made in house; host or cells: Sf9 insect cells
Nature of the experiment: WT-EGFR Kinase Assay (TR-FRET, 2 mM ATP). The experiment is classed as biochemical. From the text:
Inhibitory activity of compounds of the present invention against wild-type Epidermal Growth Factor Receptor (EGFR) was quantified employing the TR-FRET based EGFR assay as described in the following paragraphs.
Recombinant fusion protein of N-terminal Glutathion-S-Transferase (GST) and a fragment of human EGFR (amino acids R669 to A1210), expressed in Sf9 insect cells and purified via affinity chromatography using Glutathion Sepharose as described above, was used as kinase. As substrate for the kinase reaction the biotinylated peptide biotin-Ahx-[…] (C-terminus in amide form) was used which can be purchased e.g. form the company Biosynthan GmbH (Berlin-Buch, Germany).
For the assay 50 nl of a 100 fold concentrated solution of the test compound in DMSO was pipetted into either a black low volume 384 well microtiter plate or a black 1536 well microtiter plate (both Greiner Bio-One, Frickenhausen, Germany), 2 μL of a solution of EGFR in aqueous assay buffer [50 mM Hepes pH 7.0, 10 mM MgCl2, 1 mM dithiothreitol, 0.5 mM EGTA, 0.3 mM activated sodium ortho-vanadate, 0.005% (w/v) bovine serum albumin, 0.005% (v/v) Tween-20] were added and the mixture was incubated for 15 min at 22° C. to allow pre-binding of the test compounds to the enzyme before the start of the kinase reaction. […] The concentration of EGFR was adjusted depending of the activity of the enzyme lot and was chosen appropriate to have the assay in the linear range, typical concentration was 7.6 pg/μL. The reaction was stopped by the addition of 3 μL of a solution of HTRF detection reagents (83.3 nM streptavidine-XL665 [Cisbio Bioassays, Codolet, France] and 1.67 nM PT66-Tb-Cryptate, a terbium-cryptate labelled anti-phospho-tyrosine antibody from Cisbio Bioassays [instead of the PT66-Tb-cryptate PT66-Eu-Chelate from Perkin Elmer can also be used]) in an aqueous EDTA-solution (133.3 mM EDTA, 0.2% (w/v) bovine serum albumin in 50 mM HEPES pH 7.5).
The resulting mixture was incubated 1 h at 22° C. to allow the binding of the biotinylated phosphorylated peptide to the streptavidine-XL665 and the PT66-Tb-Cryptate. Subsequently the amount of phosphorylated substrate was evaluated by measurement of the resonance energy transfer from the PT66-Tb-Cryptate to the streptavidine-XL665. Therefore, the fluorescence emissions at 620 nm and 665 nm after excitation at 337 nm were measured in a HTRF reader, e.g. a Pherastar (BMG Labtechnologies, Offenburg, Germany) or a Viewlux (Perkin-Elmer). The ratio of the emissions at 665 nm and at 622 nm was taken as the measure for the amount of phosphorylated substrate.

Another experiment addresses T2, full-length human CSNK1D (Homo sapiens, UniProt P48730).
T2 construct: N-terminal Glutathion-S-Transferase (GST) and full-length human CSNK1D; purchased Life Technologies PV3665; host or cells: baculovirus infected insect cells
Nature of the experiment: CSNK1D Assay (ADP-Glo, 1 μM ATP). The class given is biochemical. Particulars: Table 3, read-out: CSNK1D IC50 [mol/l] (median). How it is done:
CSNK1D-inhibitory activity of compounds of the present invention in presence of 1 μM adenosine-tri-phosphate (ATP) was quantified employing the CSNK1 D assay as described in the following paragraphs. In essence, the enzyme activity is measured by quantification of the adenosine-di-phosphate (ADP), which is generated as a co-product of the enzyme reaction, via the “ADP-Glo™ Kinase Assay” kit from the company Promega. This detection system works as follows: In a first step the ATP not consumed in the kinase reaction is quantitatively converted to cAMP employing an adenylate cyclase (“ADP-Glo-reagent”), then the adenylate cyclase is stopped and the ADP generated in the kinase reaction converted to ATP which generates in a luciferase-based reaction a glow-luminescence signal (“Kinase Detection Reagent”).
Recombinant fusion protein of N-terminal Glutathion-S-Transferase (GST) and full-length human CSNK1D, expressed by baculovirus infected insect cells and purified via Glutathion affinity chromatography, was purchased from Life Technologies (product no. PV3665) and used as enzyme. As substrate for the kinase reaction the biotinylated peptide Btn-Ahx-[…] (C-terminus in amide form) was used which can be purchased e.g. from the company Biosyntan (Berlin-Buch, Germany).
For the assay 50 nl of a 100 fold concentrated solution of the test compound in DMSO was pipetted into a white 1536-well microtiter plate (Greiner Bio-One, Frickenhausen, Germany), 2 μL of a solution of CSNK1D in aqueous assay buffer [50 mM HEPES pH 7.5, 10% (v/v) glycerol, 10 mM MgCl2, 50 mM NaCl, 1 mM dithiothreitol, 0.01% (w/v) bovine serum albumin, 0.01% (v/v) Triton X-100] were added and the mixture was incubated for 15 min at 22° C. to allow pre-binding of the test compounds to the enzyme before the start of the kinase reaction. […] The concentration of CSNK1D was adjusted depending of the activity of the enzyme lot and was chosen appropriate to have the assay in the linear range, a typical concentration is about 0.5 ng/μL. The reaction was stopped by the addition of 2.5 μL of “ADP-Glo-reagent” (1:1.5 fold diluted with water) and the resulting mixture was incubated at 22° C. for 1 h to convert the ATP not consumed in the kinase reaction completely […]. Subsequently 2.5 μL of the “kinase detection reagent” (1.2 fold more concentrated than recommended by the producer) were added, the resulting mixture was incubated at 22° C. for 1 h and then the luminescence measured with a suitable measurement instrument (e.g. Viewlux™ from Perkin-Elmer). The amount of emitted light was taken as a measure for the amount of ADP generated and thereby for the activity of the CSNK1D.

Where [2] appears, read: EGFR Wildtyp 2 mM ATP IC50 [mol/l] (median), Table 4.
[3] abbreviates: read-out: EGFR Wildtyp 2 mM ATP IC50 [mol/l] (median), Table 4.

Structures are written as SMILES. Where two headings read alike, the source gives them in different places. Some results are limits rather than exact numbers.

T1 sequence (P00533 669-1210): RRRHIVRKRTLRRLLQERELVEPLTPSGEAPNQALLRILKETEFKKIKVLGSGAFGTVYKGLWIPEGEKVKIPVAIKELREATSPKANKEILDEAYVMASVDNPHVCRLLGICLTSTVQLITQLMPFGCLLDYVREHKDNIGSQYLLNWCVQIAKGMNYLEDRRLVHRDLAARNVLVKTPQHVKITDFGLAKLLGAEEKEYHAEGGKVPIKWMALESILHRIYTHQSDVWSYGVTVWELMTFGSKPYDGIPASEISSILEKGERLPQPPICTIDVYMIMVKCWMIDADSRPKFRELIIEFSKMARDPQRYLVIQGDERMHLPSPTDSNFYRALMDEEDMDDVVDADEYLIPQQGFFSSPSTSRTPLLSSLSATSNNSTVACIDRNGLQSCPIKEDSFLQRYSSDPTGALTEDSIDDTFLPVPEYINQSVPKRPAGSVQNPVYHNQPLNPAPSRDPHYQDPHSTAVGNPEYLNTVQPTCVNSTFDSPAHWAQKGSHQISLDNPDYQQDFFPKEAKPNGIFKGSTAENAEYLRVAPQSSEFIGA
T2 sequence (P48730 whole entry): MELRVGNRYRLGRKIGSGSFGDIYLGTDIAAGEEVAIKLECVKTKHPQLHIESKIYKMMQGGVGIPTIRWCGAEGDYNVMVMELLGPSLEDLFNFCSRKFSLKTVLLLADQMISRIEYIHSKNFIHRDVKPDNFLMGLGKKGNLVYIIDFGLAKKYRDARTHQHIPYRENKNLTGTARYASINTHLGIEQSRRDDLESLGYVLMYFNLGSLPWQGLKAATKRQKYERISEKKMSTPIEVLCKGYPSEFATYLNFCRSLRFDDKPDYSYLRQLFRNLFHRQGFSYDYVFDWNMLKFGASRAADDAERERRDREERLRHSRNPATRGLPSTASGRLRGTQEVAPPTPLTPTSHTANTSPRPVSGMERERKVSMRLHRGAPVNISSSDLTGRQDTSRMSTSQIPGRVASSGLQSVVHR

Take `O=C(Nc1cc(-c2[nH]c3c(C4CCCO4)cc(F)nc3c2-c2ccccn2)ccn1)C(CC(F)F)c1ccc(F)cc1` (single isomer, unassigned) [Example 116, (2R or S)-4,4-difluoro-N-(4-{5-fluoro-7-[(2R or S)-oxolan-2-yl]-3-(pyridin-2-yl)-1H-pyrrolo[3,2-b]pyridin-2-yl}pyridin-2-yl)-2-(4-fluorophenyl)butanamide]: the results for the IC50 (in experiment [1] (setting [2]); on full-length human CSNK1D) were 15100 nM and 4.25 nM, respectively.
Regarding `O=C(Nc1cc(-c2[nH]c3c(Cl)ccnc3c2-c2ccccn2)ccn1)C(CC(F)F)c1ccc(F)cc1` (racemic) [Example 49, (2RS)—N-{4-[7-chloro-3-(pyridin-2-yl)-1H-pyrrolo[3,2-b]pyridin-2-yl]pyridin-2-yl}-4,4-difluoro-2-(4-fluorophenyl)butanamide], the IC50 in experiment [1] (setting [2]) is greater than 20000 nM; at full-length human CSNK1D, 7.69 nM.
As for `O=C(Nc1cc(-c2[nH]c3c(OCC(F)(F)F)ncnc3c2-c2ccccn2)ccn1)C(CC(F)(F)F)c1ccc(F)cc1` (racemic) [Example 125, (2RS)-4,4,4-trifluoro-2-(4-fluorophenyl)-N-{4-[7-(pyridin-2-yl)-4-(2,2,2-trifluoroethoxy)-5H-pyrrolo[3,2-d]pyrimidin-6-yl]pyridin-2-yl}butanamide], the values for the IC50 (in experiment [1] (setting [2]); at full-length human CSNK1D) were greater than 20000 nM and 14.2 nM, respectively.
For `O=C(Nc1cc(-c2[nH]c3cccnc3c2-c2ccccc2)ccn1)C(CC(F)F)c1ccc(F)cc1` (racemic) [Example 22, 4,4-difluoro-2-(4-fluorophenyl)-N-[4-(3-phenyl-1H-pyrrolo[3,2-b]pyridin-2-yl)pyridin-2-yl]butanamide] the same measures were greater than 20000 nM and 3.18 nM.
Regarding `O=C(Nc1cc(-c2[nH]c3c(OCC4CC4)ncnc3c2-c2ccccn2)ccn1)C(CC(F)F)c1ccc(F)cc1` (racemic) [Example 128, (2RS)—N-{4-[4-(cyclopropylmethoxy)-7-(pyridin-2-yl)-5H-pyrrolo[3,2-d]pyrimidin-6-yl]pyridin-2-yl}-4,4-difluoro-2-(4-fluorophenyl)butanamide], the results for the IC50 (in experiment [1] (setting [2]); at full-length human CSNK1D) were 11200 nM and 8.51 nM, respectively.
In the same order, the values of `O=C(Nc1cc(-c2[nH]c3ccc(F)nc3c2-c2cc(F)ccn2)ccn1)C(CC(F)F)c1ccc(F)cc1` (racemic) [Example 95, (2RS)-4,4-difluoro-N-{4-[5-fluoro-3-(4-fluoropyridin-2-yl)-1H-pyrrolo[3,2-b]pyridin-2-yl]pyridin-2-yl}-2-(4-fluorophenyl)butanamide] are greater than 20000 nM and 10.5 nM.
On to `O=C(Nc1cc(-c2[nH]c3c(OCC(F)F)cc(F)nc3c2-c2ccccn2)ccn1)C(CC(F)F)c1ccc(F)cc1` (single isomer, unassigned) [Example 30, (2R or S)—N-{4-[7-(2,2-difluoroethoxy)-5-fluoro-3-(pyridin-2-yl)-1H-pyrrolo[3,2-b]pyridin-2-yl]pyridin-2-yl}-4,4-difluoro-2-(4-fluorophenyl)butanamide], for which the IC50 was greater than 20000 nM in experiment [1] (setting [3]) and 14.7 nM at full-length human CSNK1D.
Take `COc1ncnc2c(-c3ccccn3)c(-c3ccnc(NC(=O)C(CC(F)F)c4ccc(F)cc4)c3)[nH]c12` (stereo not shown) [Example 113, 4,4-difluoro-2-(4-fluorophenyl)-N-{4-[4-methoxy-7-(pyridin-2-yl)-5H-pyrrolo[3,2-d]pyrimidin-6-yl]pyridin-2-yl}butanamide]: the IC50 in experiment [1] (setting [2]) was greater than 20000 nM; on full-length human CSNK1D, 9.2 nM.
In the case of `O=C(Nc1cc(-c2[nH]c3ccc(F)nc3c2-c2cc(F)ccn2)ccn1)C(CC(F)F)c1ccc(F)cc1` (single isomer, unassigned) [Example 97, (2R or S)-4,4-difluoro-N-{4-[5-fluoro-3-(4-fluoropyridin-2-yl)-1H-pyrrolo[3,2-b]pyridin-2-yl]pyridin-2-yl}-2-(4-fluorophenyl)butanamide], the IC50 in experiment [1] (setting [3]) was greater than 20000 nM; on full-length human CSNK1D, 67 nM.
In the case of `Cc1cc(F)nc2c(-c3ccccn3)c(-c3ccnc(NC(=O)C(CC(F)F)c4ccc(F)cc4)c3)[nH]c12` (racemic) [Example 36, (rac)-4,4-difluoro-N-{4-[5-fluoro-7-methyl-3-(pyridin-2-yl)-1H-pyrrolo[3,2-b]pyridin-2-yl]pyridin-2-yl}-2-(4-fluorophenyl)butanamide], the IC50 in experiment [1] (setting [2]) was greater than 20000 nM; at full-length human CSNK1D, 41.9 nM.
As to `O=C(Nc1cc(-c2[nH]c3cc(F)cnc3c2-c2ccccn2)ccn1)C(CC(F)F)c1ccc(F)cc1` (single isomer, unassigned; (+)) [Example 17, (+)-4,4-difluoro-2-(4-fluorophenyl)-N-{4-[6-fluoro-3-(pyridin-2-yl)-1H-pyrrolo[3,2-b]pyridin-2-yl]pyridin-2-yl}butanamide], the IC50 in experiment [1] (setting [2]) was greater than 20000 nM; at full-length human CSNK1D, 3.16 nM.
As for `O=C(Nc1cc(-c2[nH]c3cc(F)cnc3c2-c2ccccn2)ccn1)C(CC(F)F)c1ccc(F)cc1` (single isomer, unassigned; (-)) [Example 18, (−)-4,4-difluoro-2-(4-fluorophenyl)-N-{4-[6-fluoro-3-(pyridin-2-yl)-1H-pyrrolo[3,2-b]pyridin-2-yl]pyridin-2-yl}butanamide], the IC50 in experiment [1] (setting [3]) was greater than 20000 nM; on full-length human CSNK1D, 25.4 nM.
As for `Cc1cnc2c(-c3ccccn3)c(-c3ccnc(NC(=O)C(CC(F)F)c4ccc(F)cc4)c3)[nH]c2c1` (single isomer, unassigned) [Example 8, 4,4-difluoro-2-(4-fluorophenyl)-N-{4-[6-methyl-3-(pyridin-2-yl)-1H-pyrrolo[3,2-b]pyridin-2-yl]pyridin-2-yl}butanamide], the results for the IC50 (in experiment [1] (setting [2]); at full-length human CSNK1D) were greater than 20000 nM and 4.01 nM, respectively.
Turning to `COc1cnc2c(-c3ccccn3)c(-c3ccnc(NC(=O)C(CC(F)F)c4ccc(F)cc4)c3)[nH]c2n1` (single isomer, unassigned) [Example 102, 4,4-difluoro-2-(4-fluorophenyl)-N-{4-[3-methoxy-7-(pyridin-2-yl)-5H-pyrrolo[2,3-b]pyrazin-6-yl]pyridin-2-yl}butanamide], the IC50 was greater than 20000 nM in experiment [1] (setting [2]) and 75 nM at full-length human CSNK1D.
